The text below walks through data of US20230083973A1, “SUBSTITUTED CYCLOPROPYL-2,2'-BIP[…], ANALOGUES THEREOF, AND METHODS USING SAME” (priority 2019, published 2023).

Read-outs that look alike come from different tables or passages of the source.

This test relates to HBsAg. Kind of test: HBsAg assay: inhibition of HBsAg in HepG2.2.15 cells (chemiluminescence immunoassay of supernatant). It is filed as cell-based, hepatitis B virus. The settings on record: HBsAg in supernatant at day 6 after exposure to compound, 0.5% DMSO. The procedure, abridged: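 Secreted HBsAg quantified by CLIA in day-6 supernatants of HepG2.2.15 cultures given compound dilutions at 0.5% final DMSO, with one compound/medium replenishment after 2–3 days. Dose-response fits gave EC50 (50% inhibition); viability checked separately by CellTiter-Glo.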

[1] abbreviates: read-out: sAg EC50, HepG2.2.15 cells.
[2] abbreviates: Hepatitis B virus, HepG2.2.15, 144 h, read-out: sAg EC50, HepG2.2.15 cells.

Take `COc1cc(C2CC2c2cnc(-c3ncccn3)nc2)cc(Cl)c1Cl` (single isomer, unassigned) [Example 59, trans-5-(2-(3,4-Dichloro-5-methoxyphenyl)cyclopropyl)-2,2′-bipyrimidine]: the half-maximal effective concentration (EC50) under setting [1] turned out to be 32 nM. On to `CC(=O)N1CC[C@H](Nc2cc(C3CC3c3cnc(-c4ncccn4)nc3)cc(F)c2F)C1` (single isomer, unassigned) [Example 225], for which the EC50 under setting [1] was determined as 350 nM. `COc1cc(C2CC2c2cnc(-c3ncccn3)nc2)ccc1F` (single isomer, unassigned) [Example 10, trans-5-(2-(4-Fluoro-3-methoxyphenyl)cyclopropyl)-2,2′-bipyrimidine]: under setting [1], the EC50 was found to be 40 nM. `CN(C)C(=O)c1cc(C2CC2c2cnc(-c3ncccn3)nc2)ccc1Cl` (single isomer, unassigned) [Example 203, trans-5-(2-([2,2′-Bipyrimidin]-5-yl)cyclopropyl)-2-chloro-N,N-dimethylbenzamide]: under setting [2], the EC50 was 6000 nM.

For `CN1CC[C@H](Nc2cc(C3CC3c3cnc(-c4ncccn4)nc3)cc(F)c2F)C1` (single isomer, unassigned) [Example 229], the concentration giving a half-maximal response (EC50) under setting [1] is 3000 nM.

Consider `COc1ccc(C2CN(c3cc([C@@H]4C[C@H]4c4cnc(-c5ncccn5)nc4)cc(F)c3F)C2)cc1OC` (relative stereo) [Example 216, trans-5-(2-(3-(3-(3,4-Dimethoxyphenyl)azetidin-1-yl)-4,5-difluorophenyl)cyclopropyl)-2,2′-bipyrimidine], for which, under setting [2], the EC50 was 25 nM.

Regarding `COc1cc(C2CC2c2cnc(-c3ncccn3)nc2C)ccc1F` (single isomer, unassigned) [Example 18, trans-5-(2-(4-Fluoro-3-methoxyphenyl)cyclopropyl)-4-methyl-2,2′-bipyrimidine], under setting [1], the EC50 is 890 nM. Take `COc1cc(C2CC2c2cnc(-c3ncccn3)nc2N2CCCCC2)ccc1F` (single isomer, unassigned) [Example 144, trans-5-(2-(4-Fluoro-3-methoxyphenyl)cyclopropyl)-4-(piperidin-1-yl)-2,2′-bipyrimidine]: under setting [1], the EC50 came out at 25000 nM.

As for `CC1(C)CCN(c2cc(C3CC3c3cnc(-c4ncccn4)nc3)cc(F)c2F)C1` (single isomer, unassigned) [Example 221, trans-5-(2-(3-(3,3-Dimethylpyrrolidin-1-yl)-4,5-difluorophenyl)cyclopropyl)-2,2′-bipyrimidine], the EC50 under setting [1] stood at 320 nM. As for `Fc1ccc(C2CC2c2cnc(-c3ncccn3)nc2)cc1OC(F)F` (single isomer, unassigned) [Example 185, trans-5-(2-(3-(Difluoromethoxy)-4-fluorophenyl)cyclopropyl)-2,2′-bipyrimidine], under setting [1], the concentration for a half-maximal effect (EC50) came out at 120 nM. On the same count and under the same terms, next, `COc1c(Cl)ccc(C2CC2c2cnc(-c3ncccn3)nc2)c1OC` (single isomer, unassigned) [Example 114, trans-5-(2-(4-Chloro-2,3-dimethoxyphenyl)cyclopropyl)-2,2′-bipyrimidine]: 3000 nM; `COc1cc(C2CC2c2cnc(-c3ncccn3)nc2)c(-c2ccccc2)cc1Cl` (single isomer, unassigned) [Example 159, trans-5-(2-(5-Chloro-4-methoxy-[1,1′-biphenyl]-2-yl)cyclopropyl)-2,2′-bipyrimidine]: 49000 nM. Still for that read-out and setting: next, `CN1CCN(c2cc(C3CC3c3cnc(-c4ncccn4)nc3)ccc2F)CC1` (single isomer, unassigned) [Example 188, trans-5-(2-(4-Fluoro-3-(4-methylpiperazin-1-yl)phenyl)cyclopropyl)-2,2′-bipyrimidine]: 4000 nM; `Fc1cn(-c2cc(C3CC3c3cnc(-c4ncccn4)nc3)cc(F)c2F)cc1F` (single isomer, unassigned) [Example 258, trans-5-(2-(3-(3,4-Difluoro-1H-pyrrol-1-yl)-4,5-difluorophenyl)cyclopropyl)-2,2′-bipyrimidine]: 14 nM; `CO[C@H]1CCN(c2cc(C3CC3c3cnc(-c4ncccn4)nc3)cc(Cl)c2F)C1` (single isomer, unassigned) [Example 116]: 90 nM.

In the case of `COc1cc(C2CN(c3cc([C@@H]4C[C@H]4c4cnc(-c5ncccn5)nc4)cc(F)c3F)C2)ccc1F` (relative stereo) [Example 215, trans-5-(2-(3,4-Difluoro-5-(3-(4-fluoro-3-methoxyphenyl)azetidin-1-yl)phenyl)cyclopropyl)-2,2′-bipyrimidine], under setting [2], the EC50 was 70 nM.

Turning to `Cc1c(C2CC2c2cnc(-c3ncccn3)nc2)ccc(Cl)c1OCC1CC1` (single isomer, unassigned) [Example 61, trans-5-(2-(4-Chloro-3-(cyclopropylmethoxy)-2-methylphenyl)cyclopropyl)-2,2′-bipyrimidine], the EC50 under setting [1] stood at 430 nM. Take `COc1cc(C2CC2c2ccc(-c3ncccn3)nc2)cc(F)c1F` (single isomer, unassigned) [Example 125, trans-2-(5-(2-(3,4-Difluoro-5-methoxyphenyl)cyclopropyl)pyridin-2-yl)pyrimidine]: the EC50 under setting [1] came out at 4 nM.

Consider `COCCCn1ncc2c(F)cc([C@@H]3C[C@H]3c3cnc(-c4ncccn4)nc3)cc21` (relative stereo) [Example 275, trans-6-(2-([2,2′-Bipyrimidin]-5-yl)cyclopropyl)-4-fluoro-1-(3-methoxypropyl)-1H-indazole], for which the EC50 under setting [2] was found to be 75 nM. Consider `COCCCn1ncc2c([C@@H]3C[C@H]3c3cnc(-c4ncccn4)nc3)cc(F)c(F)c21` (relative stereo) [Example 264, trans-4-(2-([2,2′-Bipyrimidin]-5-yl)cyclopropyl)-6,7-difluoro-1-(3-methoxypropyl)-1H-indazole], for which the EC50 under setting [2] turned out to be 4 nM. As for `Cc1cn(-c2cc(C3CC3c3cnc(-c4ncccn4)nc3)cc(F)c2F)cn1` (single isomer, unassigned) [Example 261, trans-5-(2-(3,4-Difluoro-5-(4-methyl-1H-imidazol-1-yl)phenyl)cyclopropyl)-2,2′-bipyrimidine], under setting [1], the EC50 came out at 670 nM. On to `COc1cc([C@@H]2C[C@H]2c2cnc(-c3ncccn3)nc2C)ccc1F` (relative stereo) [Example 16, trans-5-(2-(4-Fluoro-3-methoxyphenyl)cyclopropyl)-4-methyl-2,2′-bipyrimidine], for which the EC50 under setting [2] worked out at 750 nM. With `CC(=O)Nc1cc(C2CC2c2cnc(-c3ncccn3)nc2)ccc1Cl` (single isomer, unassigned) [Example 206, trans-N-(5-(2-([2,2′-Bipyrimidin]-5-yl)cyclopropyl)-2-chlorophenyl)acetamide], under setting [1], the concentration giving a half-maximal response (EC50) turned out to be 820 nM.

Take `COCCCn1cc2c(F)cc(C3CC3c3cnc(-c4ncccn4)nc3)cc2n1` (single isomer, unassigned) [Example 268, trans-6-(2-([2,2′-Bipyrimidin]-5-yl)cyclopropyl)-4-fluoro-2-(3-methoxypropyl)-2H-indazole]: under setting [1], the EC50 was 10 nM. Take `Fc1ccc(C2CC2c2cnc(-c3ncccn3)nc2)cc1OC(F)(F)F` (single isomer, unassigned) [Example 40, trans-5-(2-(4-Fluoro-3-(trifluoromethoxy)phenyl)cyclopropyl)-2,2′-bipyrimidine]: under setting [1], the EC50 turned out to be 110 nM.

Turning to `Fc1cc(C2CC2c2cnc(-c3ncccn3)nc2)cc(N2CC(c3ccccc3)C2)c1F` (single isomer, unassigned) [Example 255, trans-5-(2-(3,4-Difluoro-5-(3-phenylazetidin-1-yl)phenyl)cyclopropyl)-2,2′-bipyrimidine], the EC50 under setting [1] stood at 780 nM. Take `O=C1CCCN1c1cc(C2CC2c2cnc(-c3ncccn3)nc2)ccc1F` (single isomer, unassigned) [Example 198, trans-1-(5-(2-([2,2′-Bipyrimidin]-5-yl)cyclopropyl)-2-fluorophenyl)pyrrolidin-2-one]: the EC50 under setting [1] is 430 nM. Consider `Fc1cc(C2CC2c2cnc(-c3ncccn3)nc2)cc(N2CC3(CCOCC3)C2)c1F` (single isomer, unassigned) [Example 137, trans-2-(5-(2-([2,2′-Bipyrimidin]-5-yl)cyclopropyl)-2,3-difluorophenyl)-7-oxa-2-azaspiro[3.5]nonane], for which, under setting [1], the EC50 came out at 74 nM. For `Fc1cc(C2CC2c2cnc(-c3ncccn3)nc2)cc(N2CCCC2)c1Cl` (single isomer, unassigned) [Example 91, trans-5-(2-(4-Chloro-3-fluoro-5-(pyrrolidin-1-yl)phenyl)cyclopropyl)-2,2′-bipyrimidine], under setting [1], the EC50 was 14 nM. For `OC1CN(c2cc(C3CC3c3cnc(-c4ncccn4)nc3)ccc2F)C1` (single isomer, unassigned) [Example 54, trans-1-(5-(2-([2,2′-Bipyrimidin]-5-yl)cyclopropyl)-2-fluorophenyl)azetidin-3-ol], under setting [1], the EC50 came to 220 nM. For the molecule `COCCCOc1cc(C2CC2c2cnc(-c3ncccn3)nc2)cc(F)c1F` (single isomer, unassigned) [Example 130, trans-5-(2-(3,4-Difluoro-5-(3-methoxypropoxy)phenyl)cyclopropyl)-2,2′-bipyrimidine], the EC50 under setting [1] was 260 nM. For the molecule `COCCCn1cc2c(F)cc(C3CC3c3cnc(-c4ncccn4)nc3)cc2n1` (single isomer, unassigned) [Example 269, trans-6-(2-([2,2′-Bipyrimidin]-5-yl)cyclopropyl)-4-fluoro-2-(3-methoxypropyl)-2H-indazole], under setting [1], the EC50 turned out to be 46 nM. Still for that read-out and setting: next, `CCCc1cc(F)c(OC)cc1C1CC1c1cnc(-c2ncccn2)nc1` (single isomer, unassigned) [Example 38, trans-5-(2-(4-Fluoro-5-methoxy-2-propylphenyl)cyclopropyl)-2,2′-bipyrimidine]: 150 nM; `COc1cc(C2CC2c2cnc(-c3ncccn3)nc2)ccc1Cl` (single isomer, unassigned) [Example 34, trans-5-(2-(4-Chloro-3-methoxyphenyl)cyclopropyl)-2,2′-bipyrimidine]: 150 nM.
